{"source": "patent US7589168B2", "about": "(Roskamp Research LLC, priority 2001, dated 2009)", "key": {"rat aortic rings": {"tested_on": "rat aortic rings", "experiment": "Ex vivo rat aortic ring angiogenesis assay", "format": "cell-based, Sprague Dawley rats"}, "[1]": {"tested_on": "cow middle cerebral artery rings", "experiment": "Cow middle cerebral artery ring angiogenesis assay", "format": "cell-based", "settings": "COX-2 inhibition by NS-398; data not shown"}, "[2]": {"tested_on": "human middle cerebral artery rings", "experiment": "Human middle cerebral artery ring angiogenesis assay", "format": "cell-based", "settings": "for microvessel outgrowths: day 9, vs control"}, "[3]": {"tested_on": "A-549 (human lung adenocarcinoma)", "experiment": "Nude mouse tumor xenograft model, A-549", "format": "in vivo, nude mice", "settings": "for tumor growth (tumor volume): vs vehicle control; for tumor vascularization (mean microvessel count per tumor): vs control tumors, 50 mg/kg/day", "description": "(§1) Nude mouse tumor xenograft model. […] The tumor volumes were determined by measuring length (l) and width (w) and calculating volume (V=lw^2/2). On the termination day of each in vivo antitumor study, tumors were extracted and fixed in 10% neutral buffered formalin for 6 h. Formalin-fixed paraffin sections were cut at 3 microns and dried overnight at room temperature. Sections were immunostained with rat anti-mouse CD31 ([sequence], San Diego, Calif.) using the avidin peroxidase complex technique as previously described (Blaskovich M. A., et al. Nat. Biotechnol. 18, 1065-1070 (2000)). Briefly, sections were digested with protease XXIV (1 mg/ml in PBS, pH 7.6) for 7 minutes. Endogenous peroxidase was blocked with 3% hydrogen peroxide and non-specific background staining reduced by a 10 min incubation with normal rabbit serum. Sections were incubated for 30 min with rat anti-mouse CD31 at 1:50, for 15 min with biotinylated anti-rat IgG and for 15 min with ABC complex (VECTOR KIT, Burlingame, Calif). NOVARED was used as the chromogen. Slides were counterstained with modified Mayer's hematoxylin using standard histological techniques. For microvessel counting, the five areas of highest tumor neovascularization were microscopically selected using a low-power view. After the areas of highest neovascularization had been identified, individual microvessels were counted on a 400×(40× objective lens and 10× ocular lens) field. Brown-staining endothelial cells or endothelial cell clusters were considered as a single, countable microvessel as previously described (Weidner N. et al. N. Engl. J. Med. 324, 1-8 (1991)). Data from at least forty 400× fields of each tumor type are reported by mean values±SE. Results are expressed as the % of microvessel count standardized against the microvessel count in the control tumors (vehicle only)."}, "endothelial cells": {"tested_on": "endothelial cells", "experiment": "Toxicity (apoptosis, necrosis) of Aβ in the capillary network assay", "format": "cell-based, human", "settings": "soluble or aggregated Aβ; data not shown", "protocol": "Although endothelial cells continue to proliferate and form a cobblestone monolayer when plated on untreated tissue culture dishes, culturing on dishes coated with reconstituted basement membrane induces endothelial cells to become quiescent and adopt a three-dimensional capillary-like morphology. Therefore, the effect of Aβ on the capillary-like network formation on […] by endothelial cells isolated from human middle cerebral artery was assessed. […] The potential toxicity of Aβ was investigated in this assay and it was observed that under these culture conditions no apoptosis (as measured by ELISA determining the quantity of cytoplasmic oligonucleosomes) or necrosis (estimated by the release of LDH in the culture medium) of endothelial cells was induced by either soluble or aggregated Aβ (data not shown)."}, "[4]": {"tested_on": "human brain endothelial cells", "experiment": "Endothelial cell migration assay (modified Boyden chamber, […] invasion chamber)", "format": "cell-based", "settings": "20 hours, vs untreated cells", "description": "Endothelial Cell Migration Assay. Migration of human brain adult endothelial cells was evaluated using a modified Boyden chamber assay (BD BioCoat [sequence] Invasion Chamber), as described (Soker et al. 1998; Nakamura et al. 1997). The cells were plated at 4.10^4/ml onto an 8 μm pore size membrane coated with a thin layer of [sequence] basement membrane matrix. Freshly solubilized Aβ (1 μM and 5 μM) was added to the medium in the outer cup and the cells were cultured for 20 hours. Non-invading cells were removed from the upper surface by using a cotton swab. Membrane inserts were then fixed with 4% paraformaldehyde and stained with the DEAD-RED dye (MOLECULAR PROBE). Cells were observed using a fluorescent microscope. The number of cells, which migrated to the undersurface of the filter, was quantified by counting the cells in randomly selected 3 microscopic fields (10×). Experiments were done in triplicate."}, "[5]": {"tested_on": "U87-MG (human glioblastoma)", "experiment": "Nude mouse tumor xenograft model, U87-MG", "format": "in vivo, nude mice", "description": "as §1"}, "B16F1 melanoma cells": {"tested_on": "B16F1 melanoma cells", "experiment": "Growth of subcutaneous B16F1 melanoma tumors", "format": "in vivo, C57B16/J mice", "settings": "cells injected s.c. in medium containing 10 μM freshly dissolved Aβ1-40; 14 days after implantation", "protocol": "Subcutaneous Implantation of B16 Melanoma Cells. C57B16/J mice were purchased from Jackson laboratories at 8 weeks of age. The B16 F1 murine melanoma cell line was purchased from ATCC. Cells were grown in DMEM medium supplemented with 10% fetal calf serum and 1× mixture of antibiotics-fungicide (BIOWHITEKER). […] 100 μl of cell suspension were injected subcutaneously in mice. Fourteen days after the implantation of the cells, mice were euthanized and the tumors dissected and weighted."}, "[6]": {"tested_on": "bFGF-induced angiogenesis in MATRIGEL plugs", "experiment": "In vivo […] plug assay (bFGF-induced angiogenesis)", "parameters": "species or system mice"}, "[7]": {"tested_on": "chick chorionic allantoid membrane (CAM)", "experiment": "Chick chorionic allantoid membrane (CAM) model of angiogenesis", "format": "in vivo", "settings": "dose range 1 microgram to 250 micrograms, 48 hours", "description": "After 48 hours of incubation, CAMs were perfused with colloidal carbon, fixed and photographed."}, "[8]": {"tested_on": "neovascularization stimulated by bFGF in the rat cornea", "experiment": "Rat corneal model of angiogenesis (bFGF hydron pellets)", "format": "in vivo", "excerpt": "Representative flat-mount photomicrographs of rat corneas (original magnification ×100) 7 days after implantation of hydron pellets. […] Angiogenesis indexes are expressed as mean±SE."}, "[9]": {"settings": "50 mg/kg/day/tumor intratumorally"}}, "note": "“Also recorded” adds a separate entry of the source. Ends that are not written are not given here."}
{"compound": "CS(=O)(=O)Nc1ccc([N+](=O)[O-])cc1OC1CCCCC1", "note": "[NS-398]", "values": [{"measurement": "microvessel outgrowths", "setting": "rat aortic rings; 20 μM, day 5, vs control", "value": "displays anti-angiogenic activity; also recorded: effectively inhibited outgrowths"}, {"measurement": "effect on stimulation of microvessel outgrowths by 1 μM Aβ1-40", "setting": "rat aortic rings; NS-398 + 1 μM Aβ1-40, day 5", "value": "able to oppose the pro-angiogenic effect of 1 μM Aβ1-40; also recorded: also inhibited"}, {"measurement": "microvessel outgrowths", "setting": "[1]", "value": "partial inhibition of microvessel outgrowths"}, {"measurement": "microvessel outgrowths", "setting": "[2]; NS-398 (20 μM)", "value": "partially inhibited the microvessel outgrowths; also recorded: anti-angiogenic effect"}]}
{"compound": "Aβ: Aβ peptide as worded in the examples; methods and legends indicate Aβ1-40 (toxicity test: soluble or aggregated Aβ1-40 and Aβ1-42)", "values": [{"measurement": "tumor growth (tumor volume)", "setting": "[3]; [9]", "value": "suppression of tumor growth"}, {"measurement": "reduction of tumor microvessel densities", "setting": "[3]; CD31 and factor VIII immunostaining, 50 mg/kg/day/tumor intratumorally", "value": "approximately 60%"}, {"measurement": "tumor growth", "setting": "[3]; with 10 μM of Aβ peptide", "value": "complete inhibition of tumor growth"}, {"measurement": "apoptosis of endothelial cells (ELISA, cytoplasmic oligonucleosomes)", "setting": "endothelial cells", "value": "no apoptosis"}, {"measurement": "necrosis of endothelial cells (release of LDH in the culture medium)", "setting": "endothelial cells", "value": "no"}, {"measurement": "endothelial cell migration", "setting": "[4]; 1 μM freshly solubilized", "value": "stimulated endothelial cell migration"}, {"measurement": "endothelial cell migration", "setting": "[4]; 5 μM freshly solubilized", "value": "significantly suppressed endothelial cells migration"}, {"measurement": "tumor growth (tumor volume)", "setting": "[5]; 50 mg/kg/day/tumor intratumorally, vs vehicle control", "value": "suppression of tumor growth"}, {"measurement": "reduction of microvessel densities", "setting": "[5]; CD31 immunostaining, 50 mg/kg/day/tumor intratumorally", "value": "approximately 50%"}, {"measurement": "tumor growth", "setting": "[5]; with 10 μM of Aβ peptide", "value": "complete inhibition of tumor growth"}, {"measurement": "development of tumors (tumor weight)", "setting": "B16F1 melanoma cells", "value": "significantly reduce the development of tumors"}, {"measurement": "total cellular invasion in MATRIGEL plugs", "setting": "[6]; 50 mg/kg/day, Aβ vs scrambled Aβ group, t-test", "value": "significant difference"}, {"measurement": "angiogenesis in the MATRIGEL plug model", "setting": "[6]; with 2 μM of Aβ peptide", "value": "inhibition of angiogenesis"}]}
{"compound": "VIGKYHGMSNLVGRSFEVHQGKGAEVDAHGLFDIEAFVDV [scrambled Aβ, having the same amino acids as Aβ1-40 peptide, but in random order]", "values": [{"measurement": "vascular response vs control conditions", "setting": "[7]", "value": "no difference in vascular response"}, {"measurement": "tumor growth (tumor volume)", "setting": "[3]; [9]", "value": "did not affect the growth of human lung tumors; also recorded: no difference"}, {"measurement": "tumor vascularization (mean microvessel count per tumor)", "setting": "[3]; [9]", "value": "no significant difference"}, {"measurement": "tumor vascularization (mean microvessel count per tumor)", "setting": "[3]; 50 mg/kg/day/tumor intratumorally, listed as Aβ scrambled", "value": "did not impede tumor vascularization"}, {"measurement": "neovascularization stimulated by bFGF", "setting": "[8]; after 7 days, hydron pellets", "value": "displayed no effect"}, {"measurement": "angiogenesis index vs control (bFGF alone)", "setting": "[8]; dose not stated, 7 days", "value": "no significant difference"}, {"measurement": "microvessel outgrowths", "setting": "[2]; 1 μM, listed as scramble Aβ1-40", "value": "absence of pro-angiogenic activity; also recorded: not altered"}, {"measurement": "microvessel outgrowths", "setting": "[2]; 5 μM", "value": "not altered"}, {"measurement": "formation of outgrowths", "setting": "[2]; scramble peptide, dose not given, 9 days", "value": "unable to affect the formation of outgrowths"}, {"measurement": "endothelial cell invasion and vessel formation (PECAM-1 immunostaining)", "setting": "[6]; 50 mg/kg/day intraperitoneal, 6 days", "value": "presence of endothelial cells forming vessels"}]}
